Assay results reported in article PMC6063448, “Antimicrobial activity of linear lipopeptides derived from BP100 towards plant pathogens” (PLoS ONE, 2018).

Assays:
Type in all cases: cell-based
[1] = test system: Pseudomonas syringae pv. actinidiae Psa3700.1.1; test: MIC, growth inhibition in microtiter plates (TSB); conditions: Psa, 25°C, 48 h, OD 600 nm, lowest concentration with no growth, given as interval of tested concentrations, three replicates, experiment repeated twice
From the text: (§1) The following plant pathogenic bacterial strains were used: Erwinia amylovora PMV6076 (Institut National de la Recherche Agronomique, Angers, France), Pseudomonas syringae pv. syringae EPS94 (Institut de Tecnologia Agroalimentària, Universitat de Girona, Spain), Xanthomonas axonopodis pv. vesicatoria 2133–2, Pseudomonas syringae pv. actinidiae Psa3700.1.1, Xanthomonas fragariae Xf349-9A (Instituto Valenciano de Investigaciones Agrarias, Valencia, Spain), and Xanthomonas arboricola pv. pruni CFBP5563 (Collection Française de Bactéries associées aux Plantes, Angers, France). All bacteria except for X. fragariae were stored in Luria Bertani (LB) broth supplemented with glycerol (20%) and maintained at -80°C. For X. fragariae, Medium B [46] was used instead of LB. E. amylovora, X. arboricola pv. pruni, P. syringae pv. syringae and P. syringae pv. actinidiae were scrapped from the agar media after growing for 24 h at 25°C, and X. axonopodis pv. vesicatoria and X. fragariae after growing for 48 h at 25°C. The cell material was suspended in sterile water to obtain a suspension of 10^8 CFU mL^-1.
(§2) Lyophilized peptides were solubilized in sterile Milli-Q water to a final concentration of 1 mM and filter sterilized through a 0.22-μm pore filter. […] For antibacterial activity 20 μL of each dilution were mixed in a microtiter plate well with 20 μL of the corresponding suspension of the bacterial indicator, 160 μL of Trypticase Soy Broth (TSB) (BioMèrieux, France) to a total volume of 200 μL. For antifungal activity 20 μL of each stock solution were mixed in a microtiter plate well with 80 μL of the corresponding suspension of the fungal pathogen and 100 μL of double concentrated Potato Dextrose Broth (PDB) to a total volume of 200 μL containing 0.003% w/v of chloramphenicol to prevent bacterial contamination.
(§3) Three replicates for each combination of strain, compound and concentration were used. Microbial growth was determined by optical density measurement at 600 nm (Bioscreen C, Labsystem, Helsinki, Finland). For antibacterial activity microplates were incubated at 25°C with 20 s shaking before hourly absorbance measurement for 48 h. For antifungal activity microplates were incubated at 22°C with 1 min shaking before absorbance measurement that were done every two hours during seven days. The experiment was repeated twice. The MIC was taken as the lowest compound concentration with no growth at the end of the experiment.

[2] = test system: Erwinia amylovora PMV6076; test: MIC, growth inhibition in microtiter plates (TSB); conditions: Ea, 25°C, 48 h, OD 600 nm, lowest concentration with no growth, given as interval of tested concentrations, three replicates, experiment repeated twice
From the text: as §1, §2, §3

[3] = test system: Xanthomonas fragariae Xf349-9A; test: MIC, growth inhibition in microtiter plates (TSB); conditions: Xf, 25°C, 48 h, OD 600 nm, lowest concentration with no growth, given as interval of tested concentrations, three replicates, experiment repeated twice
From the text: as §1, §2, §3

[4] = test system: Xanthomonas arboricola pv. pruni CFBP5563; test: MIC, growth inhibition in microtiter plates (TSB); conditions: Xap, 25°C, 48 h, OD 600 nm, lowest concentration with no growth, given as interval of tested concentrations, three replicates, experiment repeated twice
From the text: as §1, §2, §3

[5] = test system: Pseudomonas syringae pv. syringae EPS94; test: MIC, growth inhibition in microtiter plates (TSB); conditions: Pss, 25°C, 48 h, OD 600 nm, lowest concentration with no growth, given as interval of tested concentrations, three replicates, experiment repeated twice
From the text: as §1, §2, §3

[6] = test system: Xanthomonas axonopodis pv. vesicatoria 2133–2; test: MIC, growth inhibition in microtiter plates (TSB); conditions: Xav, 25°C, 48 h, OD 600 nm, lowest concentration with no growth, given as interval of tested concentrations, three replicates, experiment repeated twice
From the text: as §1, §2, §3

[7] = test system: Fusarium oxysporum f. sp. lycopersici FOL 3 race 2; test: MIC, antifungal growth inhibition in microtiter plates (PDB); conditions: Fo, 22°C, seven days, OD 600 nm, lowest concentration with no growth, given as interval of tested concentrations, three replicates, experiment repeated twice
Protocol: (§4) The following plant pathogenic fungal strains were used: Penicillium expansum EPS26 (Institut de Tecnologia Agroalimentària, Universitat de Girona, Spain) and Fusarium oxysporum f. sp. lycopersici FOL 3 race 2 (ATCC 201829, American Type Culture Collection,Virginia, EEUU). Strains were cultured on potato dextrose agar (PDA) plates (Difco). Conidia from P. expansum and microconidia from F. oxysporum were obtained from 5–7 day-old agar Potato Dextrose (PDA) cultures after growth at 25°C. Inoculum was prepared by scraping spore material from culture surfaces with a cotton swab and resuspending it in distilled water containing 0.5‰ of tween 80. The suspensions were filtered through Miracloth (Merk, Millipore) and the concentration of conidia was determined using a hemacytometer and adjusted to 10^4 conidia mL^-1 for F. oxysporum and to 10^3 conidia mL^-1 for P. expansum.
as §2, §3

[8] = test system: Penicillium expansum EPS26; test: as above; conditions: Pe, 22°C, seven days, OD 600 nm, lowest concentration with no growth, given as interval of tested concentrations, three replicates, experiment repeated twice
Protocol: as §4, §2, §3

SMILES | MIC [1] [µM] | MIC [2] [µM] | MIC [3] [µM] | MIC [4] [µM] | MIC [5] [µM] | MIC [6] [µM] | MIC [7] [µM] | MIC [8] [µM]
CCCCCC(=O)NCCCC[C@H](NC(=O)[C@H](CC(C)C)NC(=O)[C@@H](NC(=O)[C@H](CCCCN)NC(=O)[C@H](CCCCN)NC(=O)[C@H](Cc1ccccc1)NC(=O)[C@H](CC(C)C)NC(=O)[C@H](CCCCN)NC(=O)[C@H](CCCCN)NC(C)=O)[C@@H](C)CC)C(=O)N[C@@H](Cc1ccc(O)cc1)C(=O)N[C@@H](CC(C)C)C(N)=O [BP376, Ac-KKLFKKILK(COC5H11)YL-NH2] | 3.1 to 6.2 | 6.2 to 12.5 | 3.1 to 6.2 | 6.2 to 12.5 | 12.5 to 25 | 6.2 to 12.5 | 0.4 to 0.8 | 3.1 to 6.2
CCCCCCCCCCCC(=O)NCCCC[C@H](NC(=O)[C@H](CCCCN)NC(C)=O)C(=O)N[C@@H](CC(C)C)C(=O)N[C@@H](Cc1ccccc1)C(=O)N[C@@H](CCCCN)C(=O)N[C@@H](CCCCN)C(=O)N[C@H](C(=O)N[C@@H](CC(C)C)C(=O)N[C@@H](CCCCN)C(=O)N[C@@H](Cc1ccc(O)cc1)C(=O)N[C@@H](CC(C)C)C(N)=O)[C@@H](C)CC [BP393, Ac-KK(COC11H23)LFKKILKYL-NH2] | 6.2 to 12.5 | 12.5 to 25 | 3.1 to 6.2 | 3.1 to 6.2 | 12.5 to 25 | 3.1 to 6.2 | 1.6 to 3.1 | >25
CCCC(=O)NCCCC[C@H](NC(C)=O)C(=O)N[C@@H](CCCCN)C(=O)N[C@@H](CC(C)C)C(=O)N[C@@H](Cc1ccccc1)C(=O)N[C@@H](CCCCN)C(=O)N[C@@H](CCCCN)C(=O)N[C@H](C(=O)N[C@@H](CC(C)C)C(=O)N[C@@H](CCCCN)C(=O)N[C@@H](Cc1ccc(O)cc1)C(=O)N[C@@H](CC(C)C)C(N)=O)[C@@H](C)CC [BP380, Ac-K(COC3H7)KLFKKILKYL-NH2] | 6.2 to 12.5 | 3.1 to 6.2 | 3.1 to 6.2 | 3.1 to 6.2 | 6.2 to 12.5 | 3.1 to 6.2 | 0.8 to 1.6 | 3.1 to 6.2
CCCCCCCCCCCC(=O)N[C@@H](CCCCN)C(=O)N[C@@H](CCCCN)C(=O)N[C@@H](CC(C)C)C(=O)N[C@@H](Cc1ccccc1)C(=O)N[C@@H](CCCCN)C(=O)N[C@@H](CCCCN)C(=O)N[C@H](C(=O)N[C@@H](CC(C)C)C(=O)N[C@@H](CCCCN)C(=O)N[C@@H](Cc1ccc(O)cc1)C(=O)N[C@@H](CC(C)C)C(N)=O)[C@@H](C)CC [BP391, C11H23CO-KKLFKKILKYL-NH2] | >25 | >25 | 3.1 to 6.2 | 6.2 to 12.5 | >25 | 6.2 to 12.5 | 12.5 to 25 | >25
CCCCCCCCCCCC(=O)NCCCC[C@H](NC(=O)[C@H](CCCCN)NC(=O)[C@H](CCCCN)NC(C)=O)C(=O)N[C@@H](Cc1ccccc1)C(=O)N[C@@H](CCCCN)C(=O)N[C@@H](CCCCN)C(=O)N[C@H](C(=O)N[C@@H](CC(C)C)C(=O)N[C@@H](CCCCN)C(=O)N[C@@H](Cc1ccc(O)cc1)C(=O)N[C@@H](CC(C)C)C(N)=O)[C@@H](C)CC [BP394, Ac-KKK(COC11H23)FKKILKYL-NH2] | 6.2 to 12.5 | 12.5 to 25 | 0.8 to 1.6 | 1.6 to 3.1 | 6.2 to 12.5 | 1.6 to 3.1 | 6.2 to 12.5 | 12.5 to 25
CCCC(=O)N[C@@H](CCCCN)C(=O)N[C@@H](CCCCN)C(=O)N[C@@H](CC(C)C)C(=O)N[C@@H](Cc1ccccc1)C(=O)N[C@@H](CCCCN)C(=O)N[C@@H](CCCCN)C(=O)N[C@H](C(=O)N[C@@H](CC(C)C)C(=O)N[C@@H](CCCCN)C(=O)N[C@@H](Cc1ccc(O)cc1)C(=O)N[C@@H](CC(C)C)C(N)=O)[C@@H](C)CC [BP379, C3H7CO-KKLFKKILKYL-NH2] | 3.1 to 6.2 | 3.1 to 6.2 | 3.1 to 6.2 | 3.1 to 6.2 | 3.1 to 6.2 | 3.1 to 6.2 | 3.1 to 6.2 | 6.2 to 12.5
CCCCCC(=O)NCCCC[C@H](NC(=O)[C@H](Cc1ccccc1)NC(=O)[C@H](CC(C)C)NC(=O)[C@H](CCCCN)NC(=O)[C@H](CCCCN)NC(C)=O)C(=O)N[C@@H](CCCCN)C(=O)N[C@H](C(=O)N[C@@H](CC(C)C)C(=O)N[C@@H](CCCCN)C(=O)N[C@@H](Cc1ccc(O)cc1)C(=O)N[C@@H](CC(C)C)C(N)=O)[C@@H](C)CC [BP372, Ac-KKLFK(COC5H11)KILKYL-NH2] | 6.2 to 12.5 | 6.2 to 12.5 | 3.1 to 6.2 | 3.1 to 6.2 | 6.2 to 12.5 | 6.2 to 12.5 | 0.8 to 1.6 | 6.2 to 12.5
CCCCCCCCCCCC(=O)NCCCC[C@H](NC(=O)[C@H](CCCCN)NC(=O)[C@H](CCCCN)NC(=O)[C@H](Cc1ccccc1)NC(=O)[C@H](CC(C)C)NC(=O)[C@H](CCCCN)NC(=O)[C@H](CCCCN)NC(C)=O)C(=O)N[C@@H](CC(C)C)C(=O)N[C@@H](CCCCN)C(=O)N[C@@H](Cc1ccc(O)cc1)C(=O)N[C@@H](CC(C)C)C(N)=O [BP398, Ac-KKLFKKK(COC11H23)LKYL-NH2] | 3.1 to 6.2 | >25 | 3.1 to 6.2 | 1.6 to 3.1 | 3.1 to 6.2 | 0.8 to 1.6 | 6.2 to 12.5 | >25
CCCCCC(=O)NCCCC[C@H](NC(=O)[C@H](CCCCN)NC(C)=O)C(=O)N[C@@H](CC(C)C)C(=O)N[C@@H](Cc1ccccc1)C(=O)N[C@@H](CCCCN)C(=O)N[C@@H](CCCCN)C(=O)N[C@H](C(=O)N[C@@H](CC(C)C)C(=O)N[C@@H](CCCCN)C(=O)N[C@@H](Cc1ccc(O)cc1)C(=O)N[C@@H](CC(C)C)C(N)=O)[C@@H](C)CC [BP369, Ac-KK(COC5H11)LFKKILKYL-NH2] | 3.1 to 6.2 | 6.2 to 12.5 | 3.1 to 6.2 | 0.8 to 1.6 | 6.2 to 12.5 | 3.1 to 6.2 | 0.4 to 0.8 | 1.6 to 3.1
CCCC(=O)NCCCC[C@H](NC(=O)[C@H](CCCCN)NC(=O)[C@H](CCCCN)NC(C)=O)C(=O)N[C@@H](Cc1ccccc1)C(=O)N[C@@H](CCCCN)C(=O)N[C@@H](CCCCN)C(=O)N[C@H](C(=O)N[C@@H](CC(C)C)C(=O)N[C@@H](CCCCN)C(=O)N[C@@H](Cc1ccc(O)cc1)C(=O)N[C@@H](CC(C)C)C(N)=O)[C@@H](C)CC [BP382, Ac-KKK(COC3H7)FKKILKYL-NH2] | 6.2 to 12.5 | 6.2 to 12.5 | 1.6 to 3.1 | 6.2 to 12.5 | 6.2 to 12.5 | 6.2 to 12.5 | 0.8 to 1.6 | 3.1 to 6.2
